Marks after values point to notes of the source that are not given here.
What was measured:
[1] = DPPH radical scavenging assay; format: biochemical; conditions: for IC50: read-out: DPPH (IC50), mean ± SEM, three determinations; for DPPH inhibiting rate: in the presence of 0.5 mM compounds
[2] = ABTS radical cationic decolorization assay; format: biochemical; conditions: read-out: ABTS (IC50); concentration that inhibits 50% of free radicals, mean ± SEM
[3] = in vitro; conditions: PAMPA
[4] = test system: SH-SY5Y cells; conditions: MTT; for Cytotoxicity on SH-SY5Y cells (in words): 0–80 μM
[5] = from PAMPA-BBB Pe
[6] = test system: MMP in H2O2-incubated SY5Y cells; assay: Mitochondrial membrane potential assay; conditions: 10 μM, 100 μM H2O2 24 h, JC-1
[7] = test system: intracellular ROS in H2O2-injured SY5Y cells; assay: Intracellular ROS levels; format: cell-based, Human; conditions: 0.1, 1 or 10 μM, 100 μM H2O2 24 h, DCFH-DA
[8] = test system: SH-SY5Y cells exposed to 100 μM H2O2; assay: Protection of SH-SY5Y cells from H2O2-induced oxidative damage; format: cell-based, Human
[9] = test system: intracellular GSH in H2O2-injured SY5Y cells; assay: Total glutathione; format: cell-based, Human; conditions: pretreatment with 10 μM, 100 μM H2O2

Compound	IC50 [1] [µM]	IC50 [2] [µM]	Papp at 16 h, 100 mg mL^−1 [3] [×10⁻⁶ cm/s]	Prediction (penetration into CNS) [5]	other results
2-(3,4-Dimethoxyphenyl)-N-octylacetamide [Compound 3d]	67.6 ± 4.74	24.3 ± 3.62	–	–	–
Cn1c(=O)c2c(ncn2C)n(C)c1=O [Caffeine, reference compound]	–	–	0.79 ± 0.1	–	–
COc1cc(CNC(=O)CCCC/C=C/C(C)C)ccc1O [Compound 3a, capsaicin, reference compound]	52.1 ± 3.21	16.9 ± 1.64	–	–	–
COc1cc(CNC(=O)CCCCCCC(C)C)ccc1O [Compound 3b, Dihydrocapsaicin]	50.9 ± 4.08	11.3 ± 1.55	5.96 ± 0.78	–	–
CC(C)CCCCCCC(=O)NCc1ccc(O)c(O)c1 [Compound 3c, N-(3,4-Dihydroxybenzyl)-8-methylnonanamide]	7.33 ± 0.98	16.8 ± 2.1	8.45 ± 0.57	CNS+ (CNS+ is predicted as high BBB permeation with Pe (×10^−6 cm s^−1) > 4.33)	Cytotoxicity on SH-SY5Y cells (in words) [4]: strong growth inhibition
CCCCCCC(=O)NCc1ccc(OC)c(OC)c1 [Compound 3e, N-(3,4-Dimethoxybenzyl)heptanamide]	–	–	10.8 ± 1.03	CNS+ (CNS+ is predicted as high BBB permeation with Pe (×10^−6 cm s^−1) > 4.33)	DPPH radical scavenging activity (in words) [1]: little radical scavenging activities; DPPH inhibiting rate [1]: 27.33 ± 2.88% ^c
CCCCCCNC(=O)Cc1ccc(O)c(OC)c1 [Compound 3f, N-Hexyl-2-(4-hydroxy-3-methoxyphenyl)acetamide]	139 ± 6.89	13.1 ± 1.47	6.24 ± 0.98	CNS+ (CNS+ is predicted as high BBB permeation with Pe (×10^−6 cm s^−1) > 4.33)	–
CCCCCCNC(=O)Cc1ccc(OC)c(OC)c1 [Compound 3g, 2-(3,4-Dimethoxyphenyl)-N-hexylacetamide]	–	–	11.2 ± 0.68	CNS+ (CNS+ is predicted as high BBB permeation with Pe (×10^−6 cm s^−1) > 4.33)	DPPH radical scavenging activity (in words) [1]: little radical scavenging activities; DPPH inhibiting rate [1]: 12.76 ± 2.54% ^c
CCCCCCNC(=O)Cc1ccc(O)c(O)c1 [Compound 3h, 2-(3,4-Dihydroxyphenyl)-N-hexylacetamide]	4.49 ± 0.74	18.6 ± 3.03	7.68 ± 0.47	CNS+ (CNS+ is predicted as high BBB permeation with Pe (×10^−6 cm s^−1) > 4.33)	–
CCCCCCCC(=O)NCc1ccc(O)c(OC)c1 [Compound 3i, N-(4-Hydroxy-3-methoxybenzyl) octanamide]	27.9 ± 4.55	13.6 ± 2.9	–	–	–
CCCCCCCC(=O)NCc1ccc(OC)c(OC)c1 [Compound 3j, N-(3,4-Dimethoxybenzyl)octanamide]	–	–	–	–	DPPH radical scavenging activity (in words) [1]: little radical scavenging activities; DPPH inhibiting rate [1]: 22.72 ± 5.47% ^c
CCCCCCCC(=O)NCc1ccc(O)c(O)c1 [Compound 3k, N-(3,4-Dihydroxybenzyl)octanamide]	5.06 ± 1.34	10.6 ± 1.28	9.23 ± 0.57	CNS+ (CNS+ is predicted as high BBB permeation with Pe (×10^−6 cm s^−1) > 4.33)	H2O2-induced reduction of MMP (in words) [6]: blocked significantly; intracellular ROS fluorescence intensity (in words) [7]: decreased gradually; cell viability under H2O2 (in words) ([8]; 0.1, 1 or 10 μM pretreatment, 100 μM H2O2): increased dose-dependently; viability at 10 µM ([8]; Homo sapiens, SH-SY5Y, read-out: cell viability): 90 ± 5.5%; Cytotoxicity on SH-SY5Y cells (in words) [4]: little toxicity; H2O2-induced decrease of intracellular GSH (in words) [9]: blocked
CCCCCCCCC(=O)NCc1ccc(O)c(OC)c1 [Compound 3l, N-(4-Hydroxy-3-methoxybenzyl)nonanamide]	27.2 ± 3.47	44.2 ± 4.65	–	–	–
CCCCCCCCC(=O)NCc1ccc(OC)c(OC)c1 [Compound 3m, N-(3,4-Dimethoxybenzyl)nonanamide]	–	–	10.6 ± 0.38	CNS+ (CNS+ is predicted as high BBB permeation with Pe (×10^−6 cm s^−1) > 4.33)	DPPH radical scavenging activity (in words) [1]: little radical scavenging activities; DPPH inhibiting rate [1]: 18.56 ± 2.33% ^c
CCCCCCCCC(=O)NCc1ccc(O)c(O)c1 [Compound 3n, N-(3,4-Dihydroxybenzyl) nonanamide]	5.91 ± 0.77	22.7 ± 2.34	10.1 ± 0.34	CNS+ (CNS+ is predicted as high BBB permeation with Pe (×10^−6 cm s^−1) > 4.33)	Cytotoxicity on SH-SY5Y cells (in words) [4]: strong growth inhibition
CCCCCCCCNC(=O)Cc1ccc(O)c(OC)c1 [Compound 3o, 2-(4-Hydroxy-3-methoxyphenyl)-N-octylacetamide]	185 ± 9.86	30.9 ± 2.79	–	–	–
CCCCCCCCNC(=O)Cc1ccc(OC)c(OC)c1 [Compound 3p, 2-(3,4-Dimethoxyphenyl)-N-octylacetamide]	–	–	–	–	DPPH radical scavenging activity (in words) [1]: little radical scavenging activities; DPPH inhibiting rate [1]: 30.48 ± 3.44% ^c
CCCCCCCCNC(=O)Cc1ccc(O)c(O)c1 [Compound 3q, 2-(3,4-Dihydroxyphenyl)-N-octylacetamide]	4.14 ± 1.09	21.6 ± 3.69	6.54 ± 0.81	CNS+ (CNS+ is predicted as high BBB permeation with Pe (×10^−6 cm s^−1) > 4.33)	Cytotoxicity on SH-SY5Y cells (in words) [4]: strong growth inhibition
OO [Compound H2O2, H2O2, reference compound]	–	–	–	–	cell viability of H2O2-treated SY5Y cells ([8]; 100 μM H2O2 alone, compared with control (100%)): 63.3 ± 4.5%; inhibition in SH-SY5Y cells ([4]; H2O2 at 100 μM): 38.1 ± 7.6%; effect on SH-SY5Y cell viability (in words) ([4]; H2O2 at 25 and 50 μM): no apparent inhibitory or promotive effects
C[C@]12CC[C@@H]3c4ccc(O)cc4CC[C@H]3[C@@H]1CC[C@@H]2O [Estradiol, reference compound]	–	–	13.2 ± 0.51	–	–
O=c1c(O)c(-c2ccc(O)c(O)c2)oc2cc(O)cc(O)c12 [Quercetin, reference compound]	8.7 ± 1.75	13.8 ± 2.87	–	–	–

Source: article PMC10619477 (RSC Advances, 2023)
